Assay results: US12303891B2, “Emulating vascular cellular physiologies” (CALIFORNIA NORTHSTATE COLLEGE OF PHARMACY, LLC, priority 2021, dated 2025)
Entries after “also recorded” stand apart in the source; their conditions may differ.

Legend:
PAH patients [1] = details: female vs male PAH patients (p=0.3); cited from earlier work
CMs and PAH-ECs = assay: PAH-RVH chip prepared with CMs and PAH-ECs, efficacy of anti-PAH drugs; assay type: cell-based, human; details: chips prepared with CMs and PAH-ECs
Text: The modified chip device can be used, for example, for growing both cardiomyocytes (CMs) in the study of cardiovascular disease, and pulmonary arterial endothelial cells (ECs) in the study of pulmonary vascular diseases. The pulmonary arterial ECs, for example, can be collected from the pulmonary arteries of healthy donors (N-ECs) and that of PAH patients (PAH-ECs). We have seen that PAH is an example of a disease that can benefit from improved treatments developed with the systems and methods taught herein. Through the growing of CMs and either N-ECs or PAH-ECs in respective compartments or channels, for example, we can measure the influence PAH-ECs on CMs by measuring various soluble cellular markers, assessing the contractility of CMs, evaluating the expression of genes by CMs, and study the influence of anti-PAH PAH drugs on the release of hypertrophy inducing agents and hypertrophic markers and CM contractility.
We developed a drug therapy using the systems and methods. We used two anti-PAH drugs, sildenafil and bosentan, on chips prepared with CMs and PAH-ECs, the drug reduced the extent of CM hypertrophy, improved the contractility, and reduced both hypertrophy-inducing agents and hypertrophic markers. From our study, one of skill will understand that the systems and methods can identify the interactions between PAH-afflicted ECs and CMs and assess the efficacy of anti-PAH drugs in ameliorating pulmonary arterial hypertension right ventricular hypertrophy (PAH-RVH).

[2] = test system: PAH-ECs/SMCs/ADCs of male and female patients; assay: PAH chip, sex-specific therapeutic response to bosentan; assay type: cell-based, human
Method: As reported in our recent publication, we first characterized the cells for various markers and seeded control and PAH cells on the respective channels of the chips at a density of 2×10^6 cells/mL of adventitial cells (ADCs) or SMCs and 5˜10×10^6 cells/mL of ECs. SMCs were seeded in rat tail type I collagen solution (Corning Inc., NY). We fed the cells with the media via the two outermost channels. In experiment when chips were seeded with three different cell types, we first instilled collagen (2 mg/mL) alone or SMC mixed with collagen into the medial channel and allowed 20 minutes for collagen to form gel and then seeded ECs and ADCs 20 minutes apart. The cell-laden chips thus prepared were placed in a humidified chamber and let them grow in a CO2 incubator for 5-8 days. Each day, the medium was removed and replaced with 150 μL fresh media.
(§1) Into chips prepared by seeding PAH-ECs/SMCs/ADCs of male and female patients, we infused 50 µM bosentan starting from day 4 of cell seeding and continued the infusion for an additional 3 days. To determine whether the drug had any preventive effects, we treated the cell-laden chips with 50 µM bosentan on day 1 of seeding and let the cells grow for 6 more days with no treatment. For studying the influence of growth hormones and anti-PAH drug on cellular functions and remodeling, we seeded male and female PAH-ECs, QD705-labeled or unlabeled PAH-SMCs and PAH-ADCs. We assessed the deposition of human ColT1, expression of aromatase (an enzyme that synthesizes estrogen) and CYP1B1 (an estrogen-metabolizing enzyme) and then measured arterial remodeling and muscularization.
For assessing the effect of the drug pulmonary arterial thickening, we assumed that ECs and SMCs grow in their respective channels, the intimal and medial layers of the chip, not outside their assigned layers. If ECs or SMCs grow outside their original seeding channels, we considered out-of-designated channel growth as intimal or medial layer thickening, respectively. We also considered the migration of SMCs from the medial to intimal as muscularization and that the number of SMCs that grow in the intimal layers is the degree of muscularization. These assumptions were based on PAH pathology whereby non-muscularized distal arteries/arterioles become muscularized and show SM-like cells from preexisting SMCs. We used phase contrast microscopy, immunostaining, and quantum dot labeling to draw line between the growth zones of different cells and for counting and identifying cells.
For demarcating boundaries of different cell growth areas, we first imaged the chips using a phase-contrast microscope and then stained the cells for imaging using a confocal microscope. For calculating the extent of intimal and medial thickening, we calculated the average of the lengths of five to seven diametrically uneven points of the same layer. To determine the degree of muscularization, we grew QD-labeled N-SMC/PAH-SMCs on the chip and stained the chips for FSP-1 and CD31 antibodies and counted the number of FSP-1+CD31− or QD-labeled SMCs in all three layers of the chip.

PAH patients [3] = assay: Responsiveness of female and male PAH patients to anti-PAH drugs; assay type: in vivo, human; details: for responsiveness of female PAH patients: 'we have found'
[4] = test system: PACs of female patients and male patients; assay: Chips with PACs of female and male PAH patients treated with estrogen and growth factor; assay type: cell-based, human
Method: as §1
For assessing the effect of the drug pulmonary arterial thickening, we assumed that ECs and SMCs grow in their respective channels, the intimal and medial layers of the chip, not outside their assigned layers. If ECs or SMCs grow outside their original seeding channels, we considered out-of-designated channel growth as intimal or medial layer thickening, respectively. We also considered the migration of SMCs from the medial to intimal as muscularization and that the number of SMCs that grow in the intimal layers is the degree of muscularization. […]

[5] = bosentan-treated female vs male chips
[6] = early treatment, female chips compared with male counterparts
[7] = female chips, 50 µM bosentan infused from day 4 for 3 days
[8] = preventive: treated on day one after seeding, then 6 days without treatment, female vs male chips

COc1ccccc1Oc1c(NS(=O)(=O)c2ccc(C(C)(C)C)cc2)nc(-c2ncccn2)nc1OCCO [bosentan]
responsiveness of female PAH patients compared with male patients, clinical data (PAH patients [1]): more responsive; also recorded: responsive | contractility of CMs (CMs and PAH-ECs): improved | extent of CM hypertrophy (CMs and PAH-ECs): reduced | hypertrophic markers (CMs and PAH-ECs): reduced | hypertrophy-inducing agents (CMs and PAH-ECs): reduced | ColT1a deposition, compartment-specific analysis [2, 5]: lower in bosentan-treated female chips than in the male chips | laminin deposition, compartment-specific analysis [2, 5]: lower in bosentan-treated female chips than in the male chips | responsiveness of female chips compared with male chips ([2]; chips with cells from female vs male PAH patients, 50 µM bosentan): more responsive | intimal deposition of ColT1a [2, 6]: decreases | intimal deposition of laminin [2, 6]: decreases | CYP1B1 expression in the medial layer [2, 7]: lowered | migration of PAH-SMCs toward the luminal and intimal layers [2, 7]: slowed | thickening of the medial layer [2, 7]: reduced | level of muscularization ([2]; female vs male chips, counting QD705+ PAH-SMCs in intimal layers): lower level of muscularization | expression of CYP1B1 [2, 8]: declined more in the medial layer of the female chips than in the male chips | presence of PAH-SMCs in the endothelial layer [2, 8]: lower in the female chips than in the male chips | responsiveness of female PAH patients (PAH patients [3]): more responsive

CCCCC[C@H](O)/C=C/[C@@H]1[C@H]2C/C(=C/CCCC(=O)O)O[C@H]2C[C@H]1O [epoprostenol]
responsiveness of female PAH patients (PAH patients [3]): more responsive

CCCNS(=O)(=O)Nc1ncnc(OCCOc2ncc(Br)cn2)c1-c1ccc(Br)cc1 [macitentan]
responsiveness of female PAH patients (PAH patients [3]): more responsive

CC(C)N(CCCCOCC(=O)NS(C)(=O)=O)c1cnc(-c2ccccc2)c(-c2ccccc2)n1 [selexipag]
responsiveness of female PAH patients (PAH patients [3]): more responsive

CCCc1nn(C)c2c(=O)[nH]c(-c3cc(S(=O)(=O)N4CCN(C)CC4)ccc3OCC)nc12 [sildenafil]
contractility of CMs (CMs and PAH-ECs): improved | extent of CM hypertrophy (CMs and PAH-ECs): reduced | hypertrophic markers (CMs and PAH-ECs): reduced | hypertrophy-inducing agents (CMs and PAH-ECs): reduced | responsiveness of male PAH patients (PAH patients [3]; male PAH patients, 'we have also found'): more responsive

CCCCC[C@H](O)CC[C@@H]1[C@H]2Cc3cccc(OCC(=O)O)c3C[C@H]2C[C@H]1O [treprostinil]
responsiveness of female PAH patients (PAH patients [3]): more responsive

Estrogen
responsiveness of female chips compared with male chips ([4]; chips with PACs from female vs male PAH patients): more responsive | arterial remodeling ([4]; chips with PACs of female patients vs male patients): more extensive arterial remodeling
